The target of experiment [1] is Cell division cycle 7-related protein kinase (Homo sapiens, UniProt O00311). The experiment can be described thus: Selectivity interaction (LanthaScreen Eu Kinase Binding Assay) EUB0001632a CDC7. Particulars: at 10 µM. (In general: TR-FRET usually uses a lanthanide donor and a delayed reading to cut background.)
Experiment [2] has as its target Tyrosine-protein kinase receptor Tie-1 (Homo sapiens) (UniProt P35590). Kind of experiment: Selectivity interaction (KinomeScan (DiscoverX)) EUB0001619a TIE1. Particulars: at 1 µM.
Experiment [3] is described as follows: Selectivity interaction (KinomeScan (DiscoverX)) EUB0001619a PKNB. Particulars: at 1 µM.
The target of experiment [4] is Ribosomal protein S6 kinase alpha-1 (Homo sapiens, UniProt Q15418). Kind of experiment: Selectivity interaction (ActivX KiNativ screen (ex vivo kinase selectivity in human PBMCs)) EUB0001619a RPS6KA1. The format is cell-based. To be noted: PBMC, at 1 µM.
Sequence of Ribosomal protein S6 kinase alpha-1 (Q15418 whole entry): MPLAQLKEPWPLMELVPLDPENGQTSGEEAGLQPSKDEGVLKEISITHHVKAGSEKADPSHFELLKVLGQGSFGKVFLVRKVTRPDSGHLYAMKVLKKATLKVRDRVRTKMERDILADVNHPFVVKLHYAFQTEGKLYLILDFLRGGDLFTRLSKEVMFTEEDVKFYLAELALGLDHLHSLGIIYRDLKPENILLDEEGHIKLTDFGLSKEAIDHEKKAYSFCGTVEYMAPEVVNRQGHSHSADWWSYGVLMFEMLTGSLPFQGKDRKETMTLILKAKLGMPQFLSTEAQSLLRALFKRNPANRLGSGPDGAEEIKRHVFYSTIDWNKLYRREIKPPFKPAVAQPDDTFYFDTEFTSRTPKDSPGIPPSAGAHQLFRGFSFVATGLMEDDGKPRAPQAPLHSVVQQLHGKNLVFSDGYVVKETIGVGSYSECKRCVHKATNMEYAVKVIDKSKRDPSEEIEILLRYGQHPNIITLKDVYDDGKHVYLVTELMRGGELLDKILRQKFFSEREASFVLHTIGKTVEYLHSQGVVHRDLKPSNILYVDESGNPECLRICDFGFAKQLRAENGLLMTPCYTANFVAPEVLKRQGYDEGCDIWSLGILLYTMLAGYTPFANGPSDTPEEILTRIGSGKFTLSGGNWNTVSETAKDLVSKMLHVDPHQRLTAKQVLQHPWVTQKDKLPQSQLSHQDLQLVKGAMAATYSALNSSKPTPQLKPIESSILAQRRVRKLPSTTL
For experiment [5], the target named is Serine/threonine-protein kinase 16 (Homo sapiens, UniProt O75716). Kind of experiment: Selectivity interaction (KinomeScan (DiscoverX)) EUB0000695a STK16. Particulars: at 100 nM.
In experiment [6] the target is Tyrosine-protein kinase receptor Tie-1 (Homo sapiens) (UniProt P35590). Kind of experiment: Selectivity interaction (KinomeScan (DiscoverX)) EUB0000666a TIE1. Particulars: at 10 µM.
Sequence of Tyrosine-protein kinase receptor Tie-1 (Homo sapiens) (P35590 whole entry): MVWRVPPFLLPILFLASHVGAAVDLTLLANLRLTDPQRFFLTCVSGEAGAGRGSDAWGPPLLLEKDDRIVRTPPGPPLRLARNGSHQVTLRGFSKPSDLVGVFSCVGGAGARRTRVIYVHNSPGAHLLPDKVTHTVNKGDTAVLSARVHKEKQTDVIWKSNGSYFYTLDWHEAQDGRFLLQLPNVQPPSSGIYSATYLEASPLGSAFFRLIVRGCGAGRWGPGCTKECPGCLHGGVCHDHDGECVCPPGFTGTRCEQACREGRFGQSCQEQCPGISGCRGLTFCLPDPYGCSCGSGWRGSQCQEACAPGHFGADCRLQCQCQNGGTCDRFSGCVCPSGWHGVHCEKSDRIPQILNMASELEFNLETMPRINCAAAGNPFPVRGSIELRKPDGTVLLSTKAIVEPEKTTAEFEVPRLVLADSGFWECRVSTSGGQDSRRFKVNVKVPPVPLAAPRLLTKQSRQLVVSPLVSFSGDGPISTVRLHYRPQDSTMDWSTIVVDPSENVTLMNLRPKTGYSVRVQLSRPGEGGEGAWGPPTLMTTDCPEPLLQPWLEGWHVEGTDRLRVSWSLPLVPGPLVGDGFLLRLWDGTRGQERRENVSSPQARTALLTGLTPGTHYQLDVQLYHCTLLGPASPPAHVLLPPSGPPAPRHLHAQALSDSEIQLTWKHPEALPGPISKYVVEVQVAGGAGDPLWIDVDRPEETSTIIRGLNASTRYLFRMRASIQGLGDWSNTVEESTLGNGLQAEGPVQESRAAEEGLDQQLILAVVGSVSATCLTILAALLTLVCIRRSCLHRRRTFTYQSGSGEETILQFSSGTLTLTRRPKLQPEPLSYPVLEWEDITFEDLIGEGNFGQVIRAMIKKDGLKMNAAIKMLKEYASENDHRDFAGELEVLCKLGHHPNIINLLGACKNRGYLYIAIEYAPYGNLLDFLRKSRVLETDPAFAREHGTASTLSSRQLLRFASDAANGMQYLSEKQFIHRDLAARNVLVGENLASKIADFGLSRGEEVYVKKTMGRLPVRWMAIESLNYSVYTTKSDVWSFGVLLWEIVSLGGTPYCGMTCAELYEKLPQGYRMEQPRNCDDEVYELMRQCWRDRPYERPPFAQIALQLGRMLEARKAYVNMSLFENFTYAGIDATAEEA
The target of experiment [7] is T1, Interleukin-1 receptor-associated kinase 4 (Homo sapiens) (UniProt Q9NWZ3).
T1 sequence (whole entry): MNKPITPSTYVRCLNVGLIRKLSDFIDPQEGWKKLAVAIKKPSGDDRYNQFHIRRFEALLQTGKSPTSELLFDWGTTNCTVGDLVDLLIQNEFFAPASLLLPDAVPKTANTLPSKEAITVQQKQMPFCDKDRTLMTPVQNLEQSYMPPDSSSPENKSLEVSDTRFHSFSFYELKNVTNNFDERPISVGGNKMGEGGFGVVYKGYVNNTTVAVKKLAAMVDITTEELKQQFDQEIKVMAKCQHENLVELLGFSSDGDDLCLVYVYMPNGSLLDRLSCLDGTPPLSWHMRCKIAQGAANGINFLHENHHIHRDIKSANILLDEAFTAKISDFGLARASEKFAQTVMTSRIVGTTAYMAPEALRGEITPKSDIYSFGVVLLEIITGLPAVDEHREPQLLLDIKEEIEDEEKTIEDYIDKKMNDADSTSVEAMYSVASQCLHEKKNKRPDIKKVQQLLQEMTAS
Kind of experiment: Selectivity interaction (Kinase panel (Invitrogen)) EUB0000639a IRAK4. Particulars: at 200 nM.

The target in experiment [8] is MAP/microtubule affinity-regulating kinase 3 (Homo sapiens) (UniProt P27448). Kind of experiment: Selectivity interaction (ActivX KiNativ screen (kinase selectivity in THP-1 cell lysates)) EUB0000639a MARK3. The format is subcellular. To be noted: lysate, at 5 µM.
The target of experiment [9] is Tyrosine-protein kinase Lyn (Homo sapiens, UniProt P07948). The experiment can be described thus: Selectivity interaction (ActivX KiNativ screen (kinase selectivity in THP-1 cell lysates)) EUB0000639a LYN. The format is subcellular. To be noted: lysate, at 0.2 µM.
Sequence of Tyrosine-protein kinase Lyn (P07948 2-512 limits assumed): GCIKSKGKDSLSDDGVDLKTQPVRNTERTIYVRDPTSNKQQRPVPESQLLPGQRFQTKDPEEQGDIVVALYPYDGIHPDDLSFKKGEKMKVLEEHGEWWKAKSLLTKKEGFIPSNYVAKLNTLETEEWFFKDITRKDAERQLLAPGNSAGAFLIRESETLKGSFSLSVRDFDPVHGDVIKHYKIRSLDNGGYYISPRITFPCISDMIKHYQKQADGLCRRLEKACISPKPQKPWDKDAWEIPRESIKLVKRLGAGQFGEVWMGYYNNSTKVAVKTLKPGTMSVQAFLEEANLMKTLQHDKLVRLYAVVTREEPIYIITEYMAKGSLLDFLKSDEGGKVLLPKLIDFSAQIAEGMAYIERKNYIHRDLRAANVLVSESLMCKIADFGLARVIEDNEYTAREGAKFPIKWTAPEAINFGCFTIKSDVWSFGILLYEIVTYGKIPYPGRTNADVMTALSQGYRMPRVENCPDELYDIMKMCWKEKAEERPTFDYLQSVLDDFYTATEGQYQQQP
The target in experiment [10] is N-lysine methyltransferase SMYD2 (Homo sapiens) (UniProt Q9NRG4). To be noted: at 1 µM.
Experiment [11] addresses T2, Mitogen-activated protein kinase kinase kinase kinase 4 (Homo sapiens, UniProt O95819). Kind of experiment: Selectivity interaction (ProQinase) EUB0000171b MAP4K4.
For experiment [12], the target named is Serine/threonine-protein kinase RIO2 (Homo sapiens) (UniProt Q9BVS4). Kind of experiment: Selectivity interaction (Ambit KINOMEscan and KiNATiv profiling in Jurkat cells) EUB0000090b RIOK2. It is filed as cell-based. Particulars: at 1 µM.
Sequence of Serine/threonine-protein kinase RIO2 (Homo sapiens) (Q9BVS4 whole entry, looked up): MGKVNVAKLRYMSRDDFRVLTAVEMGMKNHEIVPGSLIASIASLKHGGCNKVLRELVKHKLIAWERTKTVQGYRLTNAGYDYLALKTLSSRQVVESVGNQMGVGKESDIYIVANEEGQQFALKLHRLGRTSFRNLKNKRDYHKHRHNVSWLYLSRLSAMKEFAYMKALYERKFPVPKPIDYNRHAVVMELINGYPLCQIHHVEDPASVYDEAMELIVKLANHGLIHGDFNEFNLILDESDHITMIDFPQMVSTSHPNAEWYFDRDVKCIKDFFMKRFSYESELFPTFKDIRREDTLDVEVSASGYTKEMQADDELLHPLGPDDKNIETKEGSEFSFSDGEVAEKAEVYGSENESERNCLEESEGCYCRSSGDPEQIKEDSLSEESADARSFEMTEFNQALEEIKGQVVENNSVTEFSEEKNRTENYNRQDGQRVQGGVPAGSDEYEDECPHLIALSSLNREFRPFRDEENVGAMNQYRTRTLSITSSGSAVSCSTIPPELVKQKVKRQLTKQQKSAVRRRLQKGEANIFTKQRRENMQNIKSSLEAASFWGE
The target of experiment [13] is Acetylcholine receptor subunit alpha (Homo sapiens, UniProt P02708). The experiment can be described thus: Selectivity interaction (Panel of kinases, GPCRs, ion channels and transporters (enzymatic assay)) EUB0000223bCl CHRNA1.
The target in experiment [14] is T2, Mitogen-activated protein kinase kinase kinase kinase 4. The experiment can be described thus: Selectivity interaction (KinomeScan (DiscoverX)) EUB0000092b MAP4K4. To be noted: at 10 µM.
In experiment [15] the target is Focal adhesion kinase 1 (Homo sapiens, UniProt Q05397). Kind of experiment: Selectivity interaction (KinomeScan (DiscoverX)) EUB0000092b PTK2. Particulars: at 10 µM.
Experiment [16] addresses T3, Ephrin type-B receptor 3 (Homo sapiens) (UniProt P54753).
T3 sequence (whole entry): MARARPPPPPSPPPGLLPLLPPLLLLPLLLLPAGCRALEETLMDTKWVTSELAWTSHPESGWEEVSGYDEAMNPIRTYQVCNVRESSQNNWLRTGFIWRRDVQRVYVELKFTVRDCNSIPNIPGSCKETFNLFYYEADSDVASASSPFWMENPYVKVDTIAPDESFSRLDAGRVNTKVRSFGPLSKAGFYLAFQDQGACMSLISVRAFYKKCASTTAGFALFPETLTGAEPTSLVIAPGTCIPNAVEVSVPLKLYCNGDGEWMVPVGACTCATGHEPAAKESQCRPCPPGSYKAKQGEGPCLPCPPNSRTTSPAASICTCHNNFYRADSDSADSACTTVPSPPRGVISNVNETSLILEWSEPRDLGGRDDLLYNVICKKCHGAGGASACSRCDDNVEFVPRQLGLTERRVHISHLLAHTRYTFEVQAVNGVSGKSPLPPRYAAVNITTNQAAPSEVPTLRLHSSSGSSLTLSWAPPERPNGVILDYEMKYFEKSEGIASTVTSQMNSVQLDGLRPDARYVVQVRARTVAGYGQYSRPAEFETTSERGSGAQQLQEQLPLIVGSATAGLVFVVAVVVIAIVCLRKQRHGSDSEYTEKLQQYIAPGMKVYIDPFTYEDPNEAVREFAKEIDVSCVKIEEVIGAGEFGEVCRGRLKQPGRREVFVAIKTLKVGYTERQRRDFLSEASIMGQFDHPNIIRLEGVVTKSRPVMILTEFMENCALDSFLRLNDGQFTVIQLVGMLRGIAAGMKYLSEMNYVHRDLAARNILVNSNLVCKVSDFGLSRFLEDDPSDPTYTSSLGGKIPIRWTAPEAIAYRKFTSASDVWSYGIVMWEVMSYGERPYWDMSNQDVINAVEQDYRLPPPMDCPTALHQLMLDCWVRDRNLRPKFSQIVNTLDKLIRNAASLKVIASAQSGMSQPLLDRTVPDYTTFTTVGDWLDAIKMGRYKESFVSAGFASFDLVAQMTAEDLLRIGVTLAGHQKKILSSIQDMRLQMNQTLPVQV
Kind of experiment: Selectivity interaction (Kinase panel (DSF assay)) EUB0001558a EPHB3. On the technique in general: In DSF a fluorescence change marks the thermal transition of the protein.

Experiment [17] addresses BDNF/NT-3 growth factors receptor (Homo sapiens) (UniProt Q16620). Kind of experiment: Selectivity interaction (KinomeScan (DiscoverX)) EUB0000229b NTRK2. Particulars: at 10 µM.
Experiment [18] deals with Epithelial discoidin domain-containing receptor 1 (Homo sapiens) (UniProt Q08345). The experiment can be described thus: Selectivity interaction (KinomeScan (DiscoverX)) EUB0000229b DDR1. Particulars: at 10 µM.
Sequence of Epithelial discoidin domain-containing receptor 1 (Homo sapiens) (Q08345 whole entry, the tested form may be a part): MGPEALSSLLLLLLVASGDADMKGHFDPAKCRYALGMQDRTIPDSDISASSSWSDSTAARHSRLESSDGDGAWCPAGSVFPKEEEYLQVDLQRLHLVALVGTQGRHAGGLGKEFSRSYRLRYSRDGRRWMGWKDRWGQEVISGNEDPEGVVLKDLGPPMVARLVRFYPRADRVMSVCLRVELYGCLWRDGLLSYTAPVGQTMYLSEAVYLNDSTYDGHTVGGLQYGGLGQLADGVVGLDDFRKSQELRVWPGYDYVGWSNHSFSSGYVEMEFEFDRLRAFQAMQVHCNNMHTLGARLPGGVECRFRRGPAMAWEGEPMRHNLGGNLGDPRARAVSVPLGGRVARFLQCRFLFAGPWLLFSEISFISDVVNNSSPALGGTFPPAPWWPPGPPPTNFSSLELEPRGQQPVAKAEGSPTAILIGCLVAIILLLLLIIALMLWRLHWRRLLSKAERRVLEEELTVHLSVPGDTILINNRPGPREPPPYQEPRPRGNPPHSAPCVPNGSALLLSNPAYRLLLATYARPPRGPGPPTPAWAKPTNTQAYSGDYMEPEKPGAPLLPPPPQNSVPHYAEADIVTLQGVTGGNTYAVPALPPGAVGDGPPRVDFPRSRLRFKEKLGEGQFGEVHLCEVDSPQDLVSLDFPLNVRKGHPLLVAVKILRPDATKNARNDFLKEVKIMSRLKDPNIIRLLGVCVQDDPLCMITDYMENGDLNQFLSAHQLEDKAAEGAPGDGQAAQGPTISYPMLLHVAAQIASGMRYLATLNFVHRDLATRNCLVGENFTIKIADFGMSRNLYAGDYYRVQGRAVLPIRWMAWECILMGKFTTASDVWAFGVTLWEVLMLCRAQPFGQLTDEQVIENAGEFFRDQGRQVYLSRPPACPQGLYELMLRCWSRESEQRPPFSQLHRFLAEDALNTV
Experiment [19] addresses STE20-like serine/threonine-protein kinase (Homo sapiens, UniProt Q9H2G2). Kind of experiment: Selectivity interaction (Kinase panel (KiNativ target engagement assay in Jurkat cells)) EUB0001635a SLK. It is filed as cell-based. To be noted: Selectivity number of off-targets 0.0, Selectivity number of targets 233.0, Source Knowledge https://www.sciencedirect.com/science/article/pii/S2451945619300674?via%3Dihub, at 1 µM.

Experiment [20] concerns the target Cyclin-dependent kinase 1 (Homo sapiens) (UniProt P06493). The experiment can be described thus: Selectivity interaction (Kinase panel (KiNativ target engagement assay in Jurkat cells)) EUB0001635a CDK1. It is filed as cell-based. Particulars: Selectivity number of off-targets 0.0, Selectivity number of targets 233.0, Source Knowledge https://www.sciencedirect.com/science/article/pii/S2451945619300674?via%3Dihub, at 1 µM.

T2 sequence (O95819 2-1239 limits assumed): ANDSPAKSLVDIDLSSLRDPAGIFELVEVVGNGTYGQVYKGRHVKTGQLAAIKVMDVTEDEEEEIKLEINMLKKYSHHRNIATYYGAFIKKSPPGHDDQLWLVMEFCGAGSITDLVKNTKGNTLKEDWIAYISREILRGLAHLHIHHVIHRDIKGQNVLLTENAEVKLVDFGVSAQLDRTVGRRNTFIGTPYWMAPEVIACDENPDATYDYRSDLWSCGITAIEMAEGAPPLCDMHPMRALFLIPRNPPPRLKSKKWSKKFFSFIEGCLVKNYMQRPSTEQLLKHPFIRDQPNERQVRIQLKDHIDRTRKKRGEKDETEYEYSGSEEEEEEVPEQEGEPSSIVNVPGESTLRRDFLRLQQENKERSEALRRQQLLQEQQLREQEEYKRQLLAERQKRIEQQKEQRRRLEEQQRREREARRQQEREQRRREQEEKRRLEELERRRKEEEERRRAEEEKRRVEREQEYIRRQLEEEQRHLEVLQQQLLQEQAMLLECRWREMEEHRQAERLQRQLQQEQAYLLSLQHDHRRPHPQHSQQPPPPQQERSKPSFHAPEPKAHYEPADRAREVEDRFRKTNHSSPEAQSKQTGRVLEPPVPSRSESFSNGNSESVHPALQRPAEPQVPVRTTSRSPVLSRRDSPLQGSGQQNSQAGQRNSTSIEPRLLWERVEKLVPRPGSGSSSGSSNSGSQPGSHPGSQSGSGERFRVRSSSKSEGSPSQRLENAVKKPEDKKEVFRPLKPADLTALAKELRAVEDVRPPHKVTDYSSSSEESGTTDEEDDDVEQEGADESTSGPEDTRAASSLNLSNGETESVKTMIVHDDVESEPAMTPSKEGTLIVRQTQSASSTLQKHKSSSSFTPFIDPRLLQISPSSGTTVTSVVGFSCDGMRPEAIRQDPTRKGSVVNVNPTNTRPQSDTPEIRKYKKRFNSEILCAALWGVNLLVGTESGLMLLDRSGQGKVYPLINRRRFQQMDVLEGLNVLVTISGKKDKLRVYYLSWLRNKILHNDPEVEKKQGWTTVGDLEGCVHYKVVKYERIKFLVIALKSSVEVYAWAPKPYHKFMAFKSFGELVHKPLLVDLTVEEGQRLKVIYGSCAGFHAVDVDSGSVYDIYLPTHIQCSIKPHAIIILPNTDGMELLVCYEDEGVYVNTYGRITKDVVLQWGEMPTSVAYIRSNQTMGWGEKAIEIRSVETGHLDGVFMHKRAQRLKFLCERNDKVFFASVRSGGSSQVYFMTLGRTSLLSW

With `Cn1cc(-n2cnc3c(NCc4nc5cc(Cl)c(Cl)cc5[nH]4)nc(N4CCOCC4)nc32)cn1`, the % of inhibition in experiment [1] was -5.05%.

As for `N#Cc1cccc(-c2c[nH]c3ncnc(N4CCOCC4)c23)c1`, the % of control in experiment [2] is 80%; in experiment [3] it was 47%. Also, in experiment [4], the % of inhibition was found to be 56%.

`Cc1cc(F)c(C(=O)Nc2cccc(-c3nncn3C(C)C)n2)cc1-n1cnc(C2CC2)c1` came in with a % of control in experiment [5] of 83%.

Take `O=C(NOC[C@H](O)CO)c1ccc(F)c(F)c1Nc1ccc(I)cc1F`: the % of control in experiment [6] is 54%.

As for `CC[C@@H]1[C@H](F)C(=O)N[C@@H]1COc1nccc2cc(C(N)=O)c(OC)cc12` [ZIMLOVISERTIB], the % of inhibition in [7] was determined as 106%; in [8], 36.9%; in experiment [9] it was 0%.

With `CNCCN1CCC(c2cc(CN(C)C(=O)c3cccc(Oc4ccccc4)c3)ccn2)CC1`, the % activity in experiment [10] is greater than 90%.

As for `C=CC(=O)Nc1cccc(C(=O)Nc2ccc(Nc3cc(-c4[nH]c(SC)nc4C)ccn3)cc2)c1`, the % of control in [11] (at 1 µM) was 79%; in experiment [11] (at 5 µM), 55%.

With `CN(C)C/C=C/C(=O)Nc1ccc(C(=O)N2CCCC(Nc3ncc(Cl)c(-c4c[nH]c5ccccc45)n3)C2)cc1` (stereo unspecified), the % of control in [12] is 10%.

For `COc1cc(C(=O)N2CC[C@@H](O)[C@@H](N)C2)cc2nc(-c3cc4ccccc4n3CC3CC3)n(C)c12`, in [13], the pXC50 was less than 4.3 M.

Turning to `CCC(=O)N1CCN(c2ccc(-n3c(=O)ccc4cnc5ccc(-c6cnc7ccccc7c6)cc5c43)cc2C(F)(F)F)CC1`, the % of control in [14] came out at 5.2%; in experiment [15], 14%.

In experiment [16], `CC(C)(O)[C@H](F)CN1Cc2cc(NC(=O)c3cnn4cccnc34)c(N3CCOCC3)cc2C1=O` displayed a dTM of 2.1 K.

For the compound `COc1cc(N(C)c2ccnc3ccc(C(F)(F)F)cc23)cc(OC)c1OC`, the results for the % binding in experiment [17] and in [18] were 100% and 78%, respectively.

As to `C=CC(=O)Nc1ccc(C(=O)Nc2[nH]nc3c2CN(C(=O)N[C@H](CN(C)C)c2ccccc2)C3(C)C)cc1`, the % of engagement in [19] was -7.6%; in experiment [20], -6.3%.

The record behind these values is ChEMBL document CHEMBL5465560, “Selectivity Literature for EUbOPEN Chemogenomic Library” (2024).
